Measured values as given in patent US10053427B2, “Crystalline forms of cabozantinib phosphate and cabozantinib hydrochloride” (priority 2015, dated 2018).
Where a name gives a salt, the structure may show the parent alone.

Experiments:
[1] = Aqueous solubility measurement; format: physicochemical; details: thermodynamic from solid; deionized water, shaking ca. 24 h, ambient temperature (ca. 22° C.)
Procedure: Each salt was individually slurried in deionized water and subjected to shaking for ca. 24 h at ambient temperature (ca. 22° C.). The resulting saturated solutions were filtered and analyzed by HPLC analysis. XRPD analysis was carried out on any solid retained after the solubility experiment.

[2] = Karl Fischer coulometric titration (water content); format: physicochemical
Procedure: Ca. 10-20 mg of solid material was accurately weighed into a container and the weight noted. The solid was then manually introduced into the titration cell of a Mettler Toledo C30 Compact Titrator. The titration was initiated once the sample had fully dissolved in the cell. The vial was back-weighed after the addition of the solid and the weight of the added solid entered into the instrument. The water content was calculated automatically by the instrument as a percentage and the data printed.

[3] = Dynamic vapour sorption (DVS), water absorption; format: physicochemical; details: between 20% and 70% RH
Procedure: Approximately 10-20 mg of sample was placed into a vapour sorption balance pan and loaded into a DVS-1 dynamic vapour sorption balance by Surface Measurement Systems. The sample was subjected to a ramping profile from 20-90% relative humidity (RH) at 10% increments, maintaining the sample at each step until a stable weight had been achieved (99.5% step completion). After completion of the sorption cycle, the sample was dried using the same procedure, but all the way down to 0% RH and finally taken back to the starting point of 20% RH. The weight change during the sorption/desorption cycles were plotted, allowing for the hygroscopic nature of the sample to be determined.

[4] = reported in WO2010/083414; cited from earlier work
[5] = humidity (75%) and high temperature (40° C.); reported in WO2010/083414; cited from earlier work

SMILES: COc1cc2nccc(Oc3ccc(NC(=O)C4(C(=O)Nc5ccc(F)cc5)CC4)cc3)c2cc1OC.O=P(O)(O)O [Cabozantinib phosphate Form A, N-{4-[(6,7-dimethoxy-4-quinolinyl)oxy]phenyl}-N′-(4-fluorophenyl)-1,1-cyclopropanedicarboxamide phosphate]
- solubility at 24 h [1]: 90 µg/mL
- KF analysis water content [2]: 0.5 weight-%
- Water absorption ([3]; DVS): 1%

SMILES: COc1cc2nccc(Oc3ccc(NC(=O)C4(C(=O)Nc5ccc(F)cc5)CC4)cc3)c2cc1OC.Cl [Cabozantinib hydrochloride Form A-1, N-{4-[(6,7-dimethoxy-4-quinolinyl)oxy]phenyl}-N′-(4-fluorophenyl)-1,1-cyclopropanedicarboxamide hydrochloride]
- solubility at 24 h [1]: 210 µg/mL
- Water absorption (DVS) ([3]; DVS): 0.07 weight-%
- Hygroscopicity (DVS) [3]: non hygroscopic

SMILES: COc1cc2nccc(Oc3ccc(NC(=O)C4(C(=O)Nc5ccc(F)cc5)CC4)cc3)c2cc1OC [(L)-malate salt]
- Hygroscopicity [4]: non-hygroscopic

SMILES: COc1cc2nccc(Oc3ccc(NC(=O)C4(C(=O)Nc5ccc(F)cc5)CC4)cc3)c2cc1OC [cabozantinib hydrochloride salt]
- Physical stability (hydrate formation / phase change) [5]: Possible hydrate formation and a phase change
